Assay results: patent publication US5968910A, “Compositions containing two or three inhibitors of different HIV reverse transcriptases” (priority 1994, dated 1999)
Converted amounts (≈) assume the structure as drawn. Read-outs that look alike come from different tables or passages of the source.

Tests used:
HIV-1/Pyr (181-Cys) = assay: Sensitivity of mutant HIV-1 strain in CEM cell cultures; format: cell-based; conditions: Human immunodeficiency virus 1, CCRF-CEM; CEM cells, Table 1; read-out: 50% Effective Concentration
Outline: (§1)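 Syncytium formation read out after 4 days at 37° C. Cultures: CEM cells, 250,000/ml, infected at 100 50% cell culture infective doses/ml and added to compound dilutions.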

[1] = tested on: HIV-1/TSAO-m^3 T (138-Lys); assay: as above; format: cell-based; conditions: Human immunodeficiency virus 1, CCRF-CEM; CEM cells, Table 1; read-out: 50% Effective Concentration
Outline: as §1

[2] = tested on: HIV-1/V(0.1) 101-Ile + 141-Glu; assay: as above; format: cell-based; conditions: Human immunodeficiency virus 1, CCRF-CEM; Table 5; read-out: EC50
Outline: as §1

[3] = tested on: HIV-1/TIBO R82913 (103-Asn); assay: as above; format: cell-based; conditions: Human immunodeficiency virus 1, CCRF-CEM; CEM cells, Table 1; read-out: 50% Effective Concentration
Outline: as §1

HIV-1/IV(0.1) 103-Thr = assay: as above; format: cell-based; conditions: Human immunodeficiency virus 1, CCRF-CEM; Table 5; read-out: EC50
Outline: as §1

HIV-1/II(0.1) 100-Ile = assay: as above; format: cell-based; conditions: Human immunodeficiency virus 1, CCRF-CEM; Table 5; read-out: EC50
Outline: as §1

[4] = tested on: HIV-1/TIBO R82150 (100-Ile); assay: as above; format: cell-based; conditions: Human immunodeficiency virus 1, CCRF-CEM; CEM cells, Table 1; read-out: 50% Effective Concentration
Outline: as §1

HIV-1/V(0.5) 103-Asn = assay: as above; format: cell-based; conditions: Human immunodeficiency virus 1, CCRF-CEM; Table 5; read-out: EC50
Outline: as §1

HIV-1/I(0.1) 103-Asn = assay: as above; format: cell-based; conditions: Human immunodeficiency virus 1, CCRF-CEM; Table 5; read-out: EC50
Outline: as §1

HIV-1/Nev (106-Ala) = assay: as above; format: cell-based; conditions: Human immunodeficiency virus 1, CCRF-CEM; CEM cells, Table 1; read-out: 50% Effective Concentration
Outline: as §1

HIV-1/III(0.1) 103-Asn = assay: as above; format: cell-based; conditions: Human immunodeficiency virus 1, CCRF-CEM; Table 5; read-out: EC50
Outline: as §1

HIV-1 RT (WT) = HIV-1 RT (WT) (Human immunodeficiency virus type 1 group M subtype B, UniProt P03366); assay: biochemical
Outline: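 Inhibition read as reduced incorporation of [2,8-³H]dGTP (2.95 μM) into acid-precipitable product on a poly(C).oligo(dG) template/primer (0.1 mM). Recombinant RT, test compounds in 5-fold dilutions; 30 min, 37° C, pH 7.8 Tris buffer with 5 mM Mg2+, 150 mM KCl.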

HIV-1(IIIB) = assay: Knock-out concentrations: breakthrough of HIV-1(IIIB)-induced cytopathicity in CEM cell cultures; format: cell-based; conditions: for activity at 0.1 µg/mL / activity at 0.5 µg/mL / activity at 2.5 µg/mL: Human immunodeficiency virus 1, IIIB, CCRF-CEM, read-out: HIV-1-induced cytopathicity in cell culture; for activity at 0.1 µg/mL: 0.1 μg/ml; for activity at 0.5 µg/mL: 0.5 μg/ml; for activity at 2.5 µg/mL: 2.5 μg/ml
Outline: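 CEM cells in RPMI 1640 with 10% FBS infected with HIV-1(IIIB) at ~1000× CCID50, subcultured every 3–4 days into fresh uninfected cells with drug held constant for 10 subcultivations (35 days), then ≥5 drug-free passages. Breakthrough scored by syncytium formation. Combinations used the two lowest single-drug starting concentrations.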

HIV-1(IIIB) (WT) = assay: microbe, parasite or virus in culture; format: cell-based; conditions: Human immunodeficiency virus 1, IIIB, CCRF-CEM
Outline: as §1

[5] = 936 h, day 39 post infection, compound absent from day 35
[6] = 1008 h, day 42 post infection, compound absent from day 35
[7] = 1104 h, day 46 post infection, compound absent from day 35
[8] = 1176 h, day 49 post infection, compound absent from day 35
[9] = 1272 h, day 53 post infection, compound absent from day 35

## Cc1occc1C(=S)Nc1ccc(Cl)c(C(=O)OC2CCCCC2)c1 [Compound III]
HIV-1/Pyr (181-Cys)
  EC50: 0.07 µg/mL (≈ 0.185 µM)
[1]
  EC50: 0.035 µg/mL (≈ 0.0926 µM)
[2]
  EC50: 0.05 µg/mL (≈ 0.132 µM)
[3]
  EC50: 0.7 µg/mL (≈ 1.85 µM)
HIV-1/IV(0.1) 103-Thr
  EC50: 1.1 µg/mL (≈ 2.91 µM)
HIV-1/II(0.1) 100-Ile
  EC50: 0.87 µg/mL (≈ 2.3 µM)
[4]
  EC50: 0.17 µg/mL (≈ 0.45 µM)
HIV-1/V(0.5) 103-Asn
  EC50: 0.85 µg/mL (≈ 2.25 µM)
HIV-1/I(0.1) 103-Asn
  EC50: 0.3 µg/mL (≈ 0.794 µM)
HIV-1/Nev (106-Ala)
  EC50: 0.057 µg/mL (≈ 0.151 µM)
HIV-1/III(0.1) 103-Asn
  EC50: 0.16 µg/mL (≈ 0.423 µM)
HIV-1 RT (WT); range stated for the compounds together, poly(C).oligo(dG), 2.95 μM [2,8-3H]dGTP, read-out: IC50 on recombinant HIV-1 RT
  IC50: 47.6 to 204 nM
HIV-1 RT (WT); substrate [2,8-3H]dGTP 2.95 μM, template poly(rC)oligo(dG), read-out: IC50, anti-HIV-1 RT (WT) activity (converted)
  IC50: 146 nM
HIV-1(IIIB)
  prevention of virus breakthrough, fold more efficient than BHAP: at least 5 fold
  prevention of virus breakthrough, fold more efficient than nevirapine: ≥ 25 fold
HIV-1(IIIB); 96 h, day 4 post infection
  activity at 0.1 µg/mL: 0%
  activity at 0.5 µg/mL: 0%
  activity at 2.5 µg/mL: 0%
HIV-1(IIIB); 192 h, day 8 post infection
  activity at 0.1 µg/mL: 0%
  activity at 0.5 µg/mL: 0%
  activity at 2.5 µg/mL: 0%
HIV-1(IIIB); 264 h, day 11 post infection
  activity at 0.1 µg/mL: 0%
  activity at 0.5 µg/mL: 0%
  activity at 2.5 µg/mL: 0%
HIV-1(IIIB); 336 h, day 14 post infection
  activity at 0.1 µg/mL: 6.2%
  activity at 0.5 µg/mL: 0%
  activity at 2.5 µg/mL: 0%
HIV-1(IIIB); 408 h, day 17 post infection
  activity at 0.1 µg/mL: 50%
  activity at 0.5 µg/mL: 0%
  activity at 2.5 µg/mL: 0%
HIV-1(IIIB); 504 h, day 21 post infection
  activity at 0.1 µg/mL: 100%
  activity at 0.5 µg/mL: 0%
  activity at 2.5 µg/mL: 0%
HIV-1(IIIB); 600 h, day 25 post infection
  activity at 0.1 µg/mL: 100%
  activity at 0.5 µg/mL: 0%
  activity at 2.5 µg/mL: 0%
HIV-1(IIIB); 672 h, day 28 post infection
  activity at 0.1 µg/mL: 100%
  activity at 0.5 µg/mL: 0%
  activity at 2.5 µg/mL: 0%
HIV-1(IIIB); 768 h, day 32 post infection
  activity at 0.1 µg/mL: 100%
  activity at 0.5 µg/mL: 0%
  activity at 2.5 µg/mL: 0%
HIV-1(IIIB); 840 h, day 35 post infection
  activity at 0.1 µg/mL: 100%
  activity at 0.5 µg/mL: 0%
  activity at 2.5 µg/mL: 0%
HIV-1(IIIB); [5]
  activity at 0.1 µg/mL: 100%
  activity at 0.5 µg/mL: 0%
  activity at 2.5 µg/mL: 0%
HIV-1(IIIB); [6]
  activity at 0.1 µg/mL: 100%
  activity at 0.5 µg/mL: 0%
  activity at 2.5 µg/mL: 0%
HIV-1(IIIB); [7]
  activity at 0.1 µg/mL: 100%
  activity at 0.5 µg/mL: 0%
  activity at 2.5 µg/mL: 0%
HIV-1(IIIB); [8]
  activity at 0.1 µg/mL: 100%
  activity at 0.5 µg/mL: 0%
  activity at 2.5 µg/mL: 0%
HIV-1(IIIB); [9]
  activity at 0.1 µg/mL: 100%
  activity at 0.5 µg/mL: 0%
  activity at 2.5 µg/mL: 0%
HIV-1(IIIB); tested at 0.1, 0.5 and 2.5 μg/ml, 35 days
  concentration at which virus emerged (virus breakthrough): 0.1 µg/mL
HIV-1(IIIB) (WT); CEM cells, Table 1, read-out: 50% Effective Concentration
  EC50: 0.004 µg/mL (≈ 0.0106 µM)
HIV-1(IIIB) (WT); HIV-1 (III8), Table 5, read-out: EC50
  EC50: 0.004 µg/mL (≈ 0.0106 µM)
HIV-1(IIIB) (WT); range stated for Compounds I-V together, read-out: 50% inhibitory concentration, HIV-1(IIIB) replication in CEM cells
  IC50: 0.004 to 0.05 µg/mL (≈ 0.0106 to 0.132 µM)
